Test results: PMC9844952 (Molecular Imaging and Biology, 2023)
Values belong to the molecule of their own block, whether it stands above or below them.

Key:
[1] = doxorubicin-induced chronic cardiotoxicity model; format: in vivo, C57BL/6J mice; settings: 8x3 mg/kg ip over 2 weeks
NCI-H460 Fluc tumours [2] = format: in vivo, mice; settings: 60 min p.i.
S. aureus = assay: in vitro binding to S. aureus
NCI-H460 Fluc tumours [3] = assay: PET of NCI-H460 Fluc tumours on chick CAM; format: in vivo, chicken; settings: for tumour uptake in CAM tumours: 60 min p.i.
human mGlu2 receptors = human mGlu2 receptors (Homo sapiens, UniProt Q14416); assay: radioligand binding in transfected CHO-K1 cells; settings: glutamate 10 μM
human mGlu2 receptors, sequence (Q14416 19-872): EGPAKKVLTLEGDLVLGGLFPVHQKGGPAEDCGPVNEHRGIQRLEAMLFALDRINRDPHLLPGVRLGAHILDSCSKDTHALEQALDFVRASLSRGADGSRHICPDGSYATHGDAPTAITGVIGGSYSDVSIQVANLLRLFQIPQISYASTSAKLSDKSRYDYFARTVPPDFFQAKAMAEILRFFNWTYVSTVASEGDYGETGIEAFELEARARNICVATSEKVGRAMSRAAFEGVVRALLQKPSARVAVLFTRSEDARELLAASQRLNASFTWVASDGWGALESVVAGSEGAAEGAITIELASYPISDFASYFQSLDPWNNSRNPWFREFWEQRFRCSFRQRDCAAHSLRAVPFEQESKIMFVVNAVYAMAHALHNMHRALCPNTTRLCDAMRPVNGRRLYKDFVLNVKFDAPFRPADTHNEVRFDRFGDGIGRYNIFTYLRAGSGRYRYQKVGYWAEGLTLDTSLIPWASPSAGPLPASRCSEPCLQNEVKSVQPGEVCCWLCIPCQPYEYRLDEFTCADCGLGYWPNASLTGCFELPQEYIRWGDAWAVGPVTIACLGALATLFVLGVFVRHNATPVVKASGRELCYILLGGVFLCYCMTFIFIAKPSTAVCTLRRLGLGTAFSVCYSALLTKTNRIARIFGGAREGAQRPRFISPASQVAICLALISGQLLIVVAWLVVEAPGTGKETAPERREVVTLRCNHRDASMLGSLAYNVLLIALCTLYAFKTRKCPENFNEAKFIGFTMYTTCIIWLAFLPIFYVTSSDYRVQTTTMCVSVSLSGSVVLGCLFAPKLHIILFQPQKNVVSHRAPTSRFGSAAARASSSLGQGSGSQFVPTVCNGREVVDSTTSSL

mGluR2 = assay: [11C]mG2P001 PET/CT in monkeys; format: in vivo, Cynomolgus fascicularis
[4] = blood half-life and biodistribution of [99mTc]-DTPA-Collagen
Escherichia coli 25922 = assay: in vitro tracer uptake, Gram-negative control
Candida albicans 14053 = assay: in vitro tracer uptake, yeast control
Gram-positive bacteria = assay: in vitro tracer uptake, Gram-positive bacteria
[5] = in vitro stability of [99mTc]-DTPA-Collagen; settings: 50h post-incubation, Radio-TLC
[6] = LogP of [99mTc]-DTPA-Collagen
[7] = target: norepinephrine transporter (NET) (Homo sapiens, UniProt P23975); assay: competitive 3H-NE uptake assay in SK-N-SH cells; format: cell-based; settings: read-out: IC50 of 3H-NE uptake; 60 min at 37°C, with pyrogallol and pargyline
norepinephrine transporter (NET), sequence (P23975 whole entry): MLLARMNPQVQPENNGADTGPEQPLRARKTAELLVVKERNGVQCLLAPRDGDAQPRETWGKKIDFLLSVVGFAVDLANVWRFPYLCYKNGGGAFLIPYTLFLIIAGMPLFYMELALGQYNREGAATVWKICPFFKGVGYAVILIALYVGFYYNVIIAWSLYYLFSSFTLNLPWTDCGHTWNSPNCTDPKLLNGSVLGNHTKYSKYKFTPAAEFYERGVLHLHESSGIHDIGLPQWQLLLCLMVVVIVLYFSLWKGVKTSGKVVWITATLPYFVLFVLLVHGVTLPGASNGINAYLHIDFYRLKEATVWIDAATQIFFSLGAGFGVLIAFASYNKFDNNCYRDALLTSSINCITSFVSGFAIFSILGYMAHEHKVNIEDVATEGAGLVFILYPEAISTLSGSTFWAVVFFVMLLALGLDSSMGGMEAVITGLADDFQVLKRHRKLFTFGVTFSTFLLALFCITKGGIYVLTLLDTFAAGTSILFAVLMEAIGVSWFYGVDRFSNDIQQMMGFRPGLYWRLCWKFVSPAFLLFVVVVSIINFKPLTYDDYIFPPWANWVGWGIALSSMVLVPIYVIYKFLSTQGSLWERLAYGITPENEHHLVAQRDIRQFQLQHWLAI

[8] = cited from earlier work

Molecule: COc1cccc2c1C(=O)c1c(O)c3c(c(O)c1C2=O)C[C@@](O)(C(=O)CO)C[C@@H]3O[C@H]1C[C@H](N)[C@H](O)[C@H](C)O1 [doxorubicin]
overall mortality rate [1]: < 20%

tumour uptake in mice (NCI-H460 Fluc tumours [2]): 6.0 ± 1.4 %ID/g
binding to S. aureus (S. aureus): 21±1%
tumour uptake in CAM tumours (NCI-H460 Fluc tumours [3]): 10.0 ± 2.1 %ID/g
tumour-to-albumin ratio (NCI-H460 Fluc tumours [3]; i.v. ~3 MBq): 14.7
Molecule: O=C[C@H]([18F])[C@@H](O)[C@H](O)[C@H](O)CO [[18F]FDG, 18-fluorodeoxyglucose]

maximum enhancement of specific binding vs control (human mGlu2 receptors): 2 fold
SUVmax in brain (mGluR2; at 15 min): > 3
Molecule: Cn1c(CN2CCC(c3ccc(C(F)(F)F)cc3O[11CH3])CC2)nc2ncccc21 [[11C]mG2P001, 2-((4-(2-[^11C]methoxy-4-(trifluoromethyl)phenyl)piperidin-1-yl)methyl)-1-methyl-1H-imidazo[4,5-b]pyridine]
enhancement of accumulation (Logan VT) (mGluR2; representative study, pretreatment with 0.6 mg/kg mG2P001 iv): 33%

binding to S. aureus (S. aureus): 66±3%
Molecule: [99mTc]-DTPA-Collagen: Rat Tail Collagen I conjugated to DTPA and labeled with 99mTc
blood circulation half-life ([4]; blood extraction): 19 ± 2 min
liver uptake, ex vivo ([4]; rat, in vivo): 6.1±2.8 %ID/g
spleen uptake, ex vivo ([4]; rat, in vivo): 2.1±0.2 %ID/g
in vitro uptake (Escherichia coli 25922): 9±2%
in vitro uptake (Candida albicans 14053): 12±3%
in vitro uptake (Gram-positive bacteria): 63±7%
stability [5]: higher than 90%
LogP [6]: -3.69±0.58

IC50 [7]: 1750 ± 470 nM
Molecule: N=C(N)NCc1cccc(I)c1 [MIBG, meta-iodobenzylguanidine]

Molecule: N[C@@H](C[C@H](CCC[18F])C(=O)O)C(=O)O [[18F]FSPG]
tumour uptake in CAM tumours (NCI-H460 Fluc tumours [3]): 14.0 ± 5.5 %ID/g
stable in human plasma [8]: up to 4 hours
